Test results as given in patent publication EP0061882A1, “Process for preparing isoxazol-3-ylcarboxamides” (ELI LILLY AND COMPANY, priority 1981, dated 1982).

Experiments:
Test in all cases: broad spectrum greenhouse test, postemergence application
Type in all cases: in vivo
Settings in all cases: rated about 10-13 days after application, scale 1-5
Wild Oat = system: Wild Oat
Description: (§1) A broad spectrum greenhouse test was run to show the activity of the acyloxadiazoles of formula III.
(§2) Square plastic pots were filled with a sterilized sandy loam soil and were planted to seeds of the various crops and weeds. Each pot was indi- viduall^y fertilized.
(§3) Test compounds of formula III were applied postemergence to some pots and preemergence to others. Postemergence applications of the compounds were sprayed over the emerged plants about 12 days after the seeds were planted. Preemergence applications were sprayed on the soil the day after the seeds were planted.
(§4) Each test compound was dissolved in 1:1 acetone:ethanol at the rate of 2 g. per 100 ml. The solution also contained about 2 g. per 100 ml. of an anionic-nonionic surfactant blend. One ml. of the solution was diluted with deionized water to obtain the dilution desired. The.appropriate amount of the solution was applied to each pot.
(§5) After the compounds were applied, the pots were moved to the greenhouse, watered as necessary, and observed and rated about 10-13 days after application of the compounds. Untreated control plants were used as standards in every test.

Barnyard Grass = system: Barnyard Grass
Description: as §1, §2, §3, §4, §5

Foxtail = system: Foxtail; parameters: key: 1 = normal plants; 5 = dead plants or no emergence
Description: as §1, §2, §3, §4, §5

Large Crabgrass = system: Large Crabgrass; parameters: key: 1 = normal plants; 5 = dead plants or no emergence
Description: as §1, §2, §3, §4, §5

Morningglory = system: Morningglory; parameters: key: 1 = normal plants; 5 = dead plants or no emergence
Description: as §1, §2, §3, §4, §5

Pigweed = system: Pigweed; parameters: key: 1 = normal plants; 5 = dead plants or no emergence
Description: as §1, §2, §3, §4, §5

Zinnia = system: Zinnia; parameters: key: 1 = normal plants; 5 = dead plants or no emergence
Description: as §1, §2, §3, §4, §5

Mustard = system: Mustard; parameters: key: 1 = normal plants; 5 = dead plants or no emergence
Description: as §1, §2, §3, §4, §5

Tomato = system: Tomato; parameters: key: 1 = normal plants; 5 = dead plants or no emergence
Description: as §1, §2, §3, §4, §5

Velvetleaf = system: Velvetleaf; parameters: key: 1 = normal plants; 5 = dead plants or no emergence
Description: as §1, §2, §3, §4, §5

Question: Which results are given for `CN(C)c1nc(CC(=O)C(C)(C)C)no1` [5-dimethylamino-3-(2,2-dimethylpropionyl-methyl)-1,2,4-oxadiazole]?
Answer: Postemergence rating, Wild Oat (Wild Oat; Rate of Appln. 1 lbs./acre): 2; Postemergence rating, Wild Oat (Wild Oat; Rate of Appln. 2 lbs./acre): 3; Postemergence rating, Wild Oat (Wild Oat; Rate of Appln. 4 lbs./acre): 4; Postemergence rating, Barnyard Grass (Barnyard Grass; Rate of Appln. 1 lbs./acre): 4; Postemergence rating, Barnyard Grass (Barnyard Grass; Rate of Appln. 2 lbs./acre): 4; Postemergence rating, Barnyard Grass (Barnyard Grass; Rate of Appln. 4 lbs./acre): 4; Postemergence rating, Foxtail (Foxtail; Rate of Appln. 1 lbs./acre): 4; Postemergence rating, Foxtail (Foxtail; Rate of Appln. 2 lbs./acre): 5; Postemergence rating, Foxtail (Foxtail; Rate of Appln. 4 lbs./acre): 5; Postemergence rating, Large Crabgrass (Large Crabgrass; Rate of Appln. 1 lbs./acre): 5; Postemergence rating, Large Crabgrass (Large Crabgrass; Rate of Appln. 2 lbs./acre): 5; Postemergence rating, Large Crabgrass (Large Crabgrass; Rate of Appln. 4 lbs./acre): 5; Postemergence rating, Morningglory (Morningglory; Rate of Appln. 1 lbs./acre): 2; Postemergence rating, Morningglory (Morningglory; Rate of Appln. 2 lbs./acre): 5; Postemergence rating, Morningglory (Morningglory; Rate of Appln. 4 lbs./acre): 4; Postemergence rating, Pigweed (Pigweed; Rate of Appln. 1 lbs./acre): 5; Postemergence rating, Pigweed (Pigweed; Rate of Appln. 2 lbs./acre): 5; Postemergence rating, Pigweed (Pigweed; Rate of Appln. 4 lbs./acre): 5; Postemergence rating, Zinnia (Zinnia; Rate of Appln. 1 lbs./acre): 5; Postemergence rating, Zinnia (Zinnia; Rate of Appln. 2 lbs./acre): 5; Postemergence rating, Zinnia (Zinnia; Rate of Appln. 4 lbs./acre): 5; Postemergence rating, Mustard (Mustard; Rate of Appln. 1 lbs./acre): 5; Postemergence rating, Mustard (Mustard; Rate of Appln. 2 lbs./acre): 4; Postemergence rating, Mustard (Mustard; Rate of Appln. 4 lbs./acre): 5; Postemergence rating, Tomato (Tomato; Rate of Appln. 1 lbs./acre): 3; Postemergence rating, Tomato (Tomato; Rate of Appln. 2 lbs./acre): 5; Postemergence rating, Tomato (Tomato; Rate of Appln. 4 lbs./acre): 5; Postemergence rating, Velvetleaf (Velvetleaf; Rate of Appln. 1 lbs./acre): 5; Postemergence rating, Velvetleaf (Velvetleaf; Rate of Appln. 2 lbs./acre): 5; Postemergence rating, Velvetleaf (Velvetleaf; Rate of Appln. 4 lbs./acre): 5
